Key:
Assay type in all cases: functional
Conditions in all cases: Homo sapiens, read-out: LC50 (the source's name)
A498 = assay: In vitro cytotoxicity against […] cell line
DU-145 = assay: In vitro cytotoxicity against prostate DU-145 cell line
HCC 2998 = assay: In vitro cytotoxicity against colon […] cell line
M14 = assay: In vitro cytotoxicity against melanoma M14 cell line
NCI-H226 = assay: In vitro cytotoxicity against non-small cell lung NCI-H226 cell line
SF-539 = assay: In vitro cytotoxicity against CNS SF-539 cell line
SNB-19 = assay: In vitro cytotoxicity against CNS SNB-19 cell line
SR = assay: In vitro cytotoxicity against leukemia SR cell line

COc1cc2c(cc1OCCCC(=O)Nc1cc3cccc4ccc5cccc1c5c43)N=C[C@@H]1CCCN1C2=O
CC50 (A498): 40 nM
CC50 (DU-145): 240 nM
CC50 (HCC 2998): 10 nM
CC50 (M14): 50 nM
CC50 (NCI-H226): < 10 nM
CC50 (SF-539): 180 nM
CC50 (SNB-19): 420 nM
CC50 (SR): 50 nM

From ChEMBL document CHEMBL1147402, “Synthesis and antitumour activity of pyrene-linked pyrrolo [2,1-c]benzodiazepine hybrids” (Bioorg Med Chem Lett, 2004)
